Drawing on publication PMC3446636 (2012), this text covers Km for 1 compound.

This assay addresses Cyclin-dependent kinase 2 (CDK2) (Homo sapiens, UniProt P24941).

Consider `Nc1ncnc2c1ncn2[C@@H]1O[C@H](COP(=O)(O)OP(=O)(O)OP(=O)(O)O)[C@@H](O)[C@H]1O` [ATP], for which the Km was approximately 100 µM.
